Results published in US11970474B2, “Substituted benzodiazoles and use thereof in therapy” (THOMAS HELLEDAYS STIFTELSE FÖR MEDICINSK FORSKNING, priority 2018, dated 2024).
Where two headings read alike, the source gives them in different places.

How the values were obtained:
OGG1 = OGG1 (Homo sapiens (Human), UniProt O15527); experiment: In vitro OGG1 activity assay; assay type: biochemical; conditions: 800 pM OGG1 enzyme, 2 nM human APEX1, 10 nM 8-oxoA:C substrate
In short: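 Read-out is fluorescein fluorescence, with compounds in DMSO added first, then enzyme and substrate. OGG1 excises its substrate base from a quenched fluorophore-labelled duplex, and surplus APEX1 cuts the resulting apurinic site. The duplex then melts and fluorescence rises in proportion to glycosylase activity.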

MLE12 cells = experiment: Cell viability assay in MLE12 cells (resazurin); assay type: cell-based, mouse; conditions: TNF-α 20 ng/ml, resazurin added after 24 hours culture
In short: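 MLE12 cells (7500 cells/well) were seeded onto 11-point duplicate compound dose-responses, with TNF-α (final 20 ng/ml) added after 1 hour at 37° C. After 24 hours, resazurin was added for 6 hours and resorufin fluorescence read (ex544 nm/em595 nm). EC50 values were calculated by curve fitting.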

CCL2 = experiment: Mouse CCL2 assay in MLE12 cells; assay type: cell-based; conditions: MLE12 cells, TNF-α 20 ng/ml, supernatant after 30 hours, HTRF, read-out: CCL2 (EC50)
In short: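 CCL2 in supernatants was quantified by two-antibody HTRF FRET, read at 620 and 665 nm after overnight RT incubation, with IC50 derived from delta ratios. Cells were SV40-transformed mouse MLE12, treated with duplicate 6-point compound series for 1 h before 30 h TNF-α (20 ng/ml final) stimulation.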

Chain of OGG1 (O15527 whole entry): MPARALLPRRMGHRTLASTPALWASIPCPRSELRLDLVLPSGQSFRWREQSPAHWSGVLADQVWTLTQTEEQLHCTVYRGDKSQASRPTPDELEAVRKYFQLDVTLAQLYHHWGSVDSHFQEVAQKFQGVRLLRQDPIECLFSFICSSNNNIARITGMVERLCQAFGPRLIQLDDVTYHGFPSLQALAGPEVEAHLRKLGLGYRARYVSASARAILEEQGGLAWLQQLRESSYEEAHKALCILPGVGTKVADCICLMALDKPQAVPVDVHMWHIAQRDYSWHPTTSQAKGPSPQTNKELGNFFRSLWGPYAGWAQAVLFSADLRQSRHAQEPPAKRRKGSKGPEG

Structure (SMILES) | IC50 (OGG1) [µM] | IC50 (MLE12 cells; Mus musculus, MLE12, 24 h) [µM] | IC50 (MLE12 cells) [µM] | EC50 (CCL2) [µM] | EC50 (CCL2; Mus musculus, MLE12, 30 h) [µM]
COc1cc(NC(=O)[C@H]2CC[C@@H](n3c(=O)[nH]c4c(C(=O)NCCN(C)C)cccc43)CC2)ccc1C [Example 228, N-[2-(Dimethylamino)ethyl]-2-oxo-1-[cis-4-[(3-methoxy-4-methylphenyl)carbamoyl]cyclohexyl]-2,3-dihydro-1H-1,3-benzodiazole-4-carboxamide] | 0.00015 | 16.4 | 10.5 | 11.2 | 20.8
COc1cc(NC(=O)[C@H]2CC[C@@H](n3c(=O)[nH]c4c(N(C)CCN(C)C)cccc43)CC2)ccc1C [Example 229, Cis-4-(4-{[2-(dimethylamino)ethyl](methyl)amino}-2-oxo-2,3-dihydro-1H-1,3-benzodiazol-1-yl)-N-(3-methoxy-4-methylphenyl)cyclohexane-1-carboxamide] | 0.0298 | 9.19 | 6.67 | 6.93 | 12.2
COc1ccc(CSc2cccc3c2[nH]c(=O)n3[C@H]2CC[C@@H](C(=O)Nc3ccc(C)c(OC)c3)CC2)cc1 [Example 230, Cis-N-(3-methoxy-4-methylphenyl)-4-(4-{[(4-methoxyphenyl)methyl]sulfanyl}-2-oxo-2,3-dihydro-1H-1,3-benzodiazol-1-yl)cyclohexane-1-carboxamide] | 0.606 | 2.58 |  |  | 5.84
COc1cc(NC(=O)[C@H]2CC[C@@H](n3c(=O)[nH]c4c(S)cccc43)CC2)ccc1C [Example 237, Cis-N-(3-methoxy-4-methylphenyl)-4-(2-oxo-4-sulfanyl-2,3-dihydro-1H-1,3-benzodiazol-1-yl)cyclohexane-1-carboxamide] | 0.0671 | 4.54 |  |  | 31.7
COc1cc(NC(=O)[C@H]2CC[C@@H](n3c(=O)[nH]c4cc(C#N)ccc43)CC2)ccc1C [Example 238, Cis-4-(5-cyano-2-oxo-2,3-dihydro-1H-1,3-benzodiazol-1-yl)-N-(3-methoxy-4-methylphenyl)cyclohexane-1-carboxamide] | 0.0409 | 9.18 |  |  | 27.1
COc1cc(NC(=O)[C@H]2CC[C@@H](n3c(=O)[nH]c4c(N5CCNCC5)cccc43)CC2)ccc1C [Example 240, Cis-N-(3-methoxy-4-methylphenyl)-4-[2-oxo-4-(piperazin-1-yl)-2,3-dihydro-1H-1,3-benzodiazol-1-yl]cyclohexane-1-carboxamide] | 0.0153 | 16.1 |  |  | 21.5
COc1cc(NC(=O)[C@H]2CC[C@@H](n3c(=O)[nH]c4c(N(C)Cc5ccccc5)cccc43)CC2)ccc1C [Example 243, Cis-4-{4-[benzyl(methyl)amino]-2-oxo-2,3-dihydro-1H-1,3-benzodiazol-1-yl}-N-(3-methoxy-4-methylphenyl)cyclohexane-1-carboxamide] | 1.47 | 5.74 |  |  | 14.7
CNc1cccc2c1[nH]c(=O)n2[C@H]1CC[C@@H](C(=O)Nc2ccc(C)c(OC)c2)CC1 [Example 244, Cis-N-(3-methoxy-4-methylphenyl)-4-[4-(methylamino)-2-oxo-2,3-dihydro-1H-1,3-benzodiazol-1-yl]cyclohexane-1-carboxamide] | 0.0607 | 13.7 |  |  | 37.3
COCCOc1cccc2c1[nH]c(=O)n2[C@H]1CC[C@@H](C(=O)Nc2ccc(C)c(OC)c2)CC1 [Example 245, Cis-N-(3-methoxy-4-methylphenyl)-4-[4-(2-methoxyethoxy)-2-oxo-2,3-dihydro-1H-1,3-benzodiazol-1-yl]cyclohexane-1-carboxamide] | 2.76 | 12.5 |  |  | > 33
COCC(=O)Nc1cccc2c1[nH]c(=O)n2[C@H]1CC[C@@H](C(=O)Nc2ccc(C)c(OC)c2)CC1 [Example 250, Cis-N-(3-methoxy-4-methylphenyl)-4-[4-(2-methoxyacetamido)-2-oxo-2,3-dihydro-1H-1,3-benzodiazol-1-yl]cyclohexane-1-carboxamide] | 0.0235 | 26 |  |  | 39.9
Cn1c(NC(=O)[C@H]2CC[C@@H](n3c(=O)[nH]c4c(Br)cccc43)CC2)nc2ccccc21 [Example 257, Cis-4-(4-bromo-2-oxo-2,3-dihydro-1H-1,3-benzodiazol-1-yl)-N-(1-methyl-1H-1,3-benzodiazol-2-yl)cyclohexane-1-carboxamide] | 0.0269 | 19.9 |  |  | 34.3
COC(=O)c1cccc2c1[nH]c(=O)n2[C@H]1CC[C@@H](C(=O)Nc2ccc(C)c(OC)c2)CC1 [Example 258, Methyl 2-oxo-1-[cis-4-[(3-methoxy-4-methylphenyl)carbamoyl]cyclohexyl]-2,3-dihydro-1H-1,3-benzodiazole-4-carboxylate] | 0.00583 | 11.3 |  |  | 42.7
COc1cc(NC(=O)[C@H]2CC[C@@H](n3c(=O)[nH]c4c(C(=O)N5CCOCC5)cccc43)CC2)ccc1C [Example 262, Cis-N-(3-methoxy-4-methylphenyl)-4-[4-(morpholine-4-carbonyl)-2-oxo-2,3-dihydro-1H-1,3-benzodiazol-1-yl]cyclohexane-1-carboxamide] | 0.348 | 19.7 |  |  | > 100
COc1cc(NC(=O)[C@H]2CC[C@@H](n3c(=O)[nH]c4c(C(=O)NCCO)cccc43)CC2)ccc1C [Example 263, N-(2-Hydroxyethyl)-2-oxo-1-[cis-4-[(3-methoxy-4-methylphenyl)carbamoyl]cyclohexyl]-2,3-dihydro-1H-1,3-benzodiazole-4-carboxamide] | 0.00271 | 27.2 |  |  | > 33
COc1cc(NC(=O)[C@H]2CC[C@@H](n3c(=O)[nH]c4c(C(=O)N5CC[C@@H](N(C)C)C5)cccc43)CC2)ccc1C [Example 267, Cis-4-{4-[(3R)-3-(dimethylamino)pyrrolidine-1-carbonyl]-2-oxo-2,3-dihydro-1H-1,3-benzodiazol-1-yl}-N-(3-methoxy-4-methylphenyl)cyclohexane-1-carboxamide] | 0.0824 | 17.9 |  |  | 34.1
COc1cc(NC(=O)[C@H]2CC[C@@H](n3c(=O)[nH]c4c(C(=O)N5CCN(C)CC5)cccc43)CC2)ccc1C [Example 268, Cis-N-(3-methoxy-4-methylphenyl)-4-[4-(4-methylpiperazine-1-carbonyl)-2-oxo-2,3-dihydro-1H-1,3-benzodiazol-1-yl]cyclohexane-1-carboxamide] | 0.153 | 13.4 |  |  | > 100
COc1cc(NC(=O)[C@H]2CC[C@@H](n3c(=O)[nH]c4c(C(=O)NCc5ncc[nH]5)cccc43)CC2)ccc1C [Example 270, N-[(1H-Imidazol-2-yl)methyl]-2-oxo-1-[cis-4-[(3-methoxy-4-methylphenyl)carbamoyl]cyclohexyl]-2,3-dihydro-1H-1,3-benzodiazole-4-carboxamide] | 0.00039 | 16.8 |  |  | 32.9
COc1cc(NC(=O)[C@H]2CC[C@@H](n3c(=O)[nH]c4c(C(=O)N5CCC[C@H]5CN5CCCC5)cccc43)CC2)ccc1C [Example 271, Cis-N-(3-methoxy-4-methylphenyl)-4-{2-oxo-4-[(2S)-2-[(pyrrolidin-1-yl)methyl]pyrrolidine-1-carbonyl]-2,3-dihydro-1H-1,3-benzodiazol-1-yl}cyclohexane-1-carboxamide] | 0.056 | 4.65 |  |  | 9.45
